Laboratory results published in patent US20260000763A1, “Methods of Manufacturing Therapeutic Cells” (The Board of Trustees of the Leland Stanford Junior …, priority 2022, published 2026).

Assays:
CAR T cells = assay: Seahorse analysis, ATP5 expression and ATP levels of CAR T cells manufactured in inosine; type: cell-based
Experimental: A and B: Seahorse analysis of CAR T cells at day 11 post-activation. Representative graphs of n=1-2 donors are shown. P values were determined by unpaired two-tailed t-tests. C: Flow analysis of ATP5 expression by CD8+ CAR T cells at day 17 post-activation. Representative histograms of two donors are shown. D: ATP levels in CAR T cells at day 14 post activation. Results from two independent experiments are shown (n=2).
Studied next was the effect of inosine on CAR T cell metabolism. […] Furthermore, the total amount of ATP generated by CAR T cells grown in the presence of inosine was increased (FIG. 4D).

Text for HA-CAR T cells: 9D: Levels of expression of indicated purinergic pathway gene transcripts from bulk RNA samples. Data are mean+/−s.e.m. from n=3 donors. P values determined by paired two-tailed t-tests. *, P<0.05; **, P<0.01; ***, P<0.001; **** P<0.0001. […] Histograms of representative donor (Left) and pooled data from n=8 donors shown (Right). P values determined by paired two-tailed t-tests. *, P<0.05; **, P<0.01; ***, P<0.001; ****, P<0.0001. 9F: UMAP plots of day 14 CD8+ (top) and CD4+ (bottom) HA-or HA-INO-CAR T cells analyzed using CyTOF. 9,000 or maximum of CD4+ CAR T cells from each condition from n=4 donors were organized by their combined expression of 5 exhaustion markers. Graphs represent median expression of indicated markers. P values determined by paired two-tailed t-tests. *, P<0.05; **, P<0.01; ***, P<0.001; ****, P<0.0001. 9G: Histograms showing GD2 antigen expressed by Nalm6-GD2 and 143b tumor lines with corresponding number of molecules per cell. 9H: Co-cultures of HA, HA-ADA-O/E-or HA grown in INO stimulated with Nalm6-GD2 (1:8 E: T) at day 14 post-activation. Tumor GFP fluorescence intensity was normalized to the first time point (duplicate or triplicate wells). Representative donor of n=2 donor shown. P values determined by two-way ANOVA with Dunnett's multiple comparisons test. *, P<0.05; **, P<0.01; ***, P<0.001; ****, P<0.0001. […] Error bars represent mean+SD of triplicate wells from one representative donor of n=1-2 donors. P values determined by unpaired two-tailed t-tests. *, P<0.05; **, P<0.01; ***, P<0.001; ****, P<0.0001. 9J: IL-2 release after 24h of CD19.4-1BBz-CAR T cells stimulated with Nalm6 tumor line alone or in co-culture with HA-or HA-INO-CAR T cells at 1:1:1 ratio. Data are mean+SD from triplicate wells. N=1 donor. *, P<0.05; **, P<0.01; *** P<0.001; ****, P<0.0001. […] Data polled from n=5 donors from independent experiments. P values determined by paired two-tailed t-tests *, P<0.05; **, P<0.01; ***, P<0.001; ****, P<0.0001. […] Tumor GFP fluorescence intensity was normalized to the first time point (duplicate or triplicate wells). Representative donor of n=3 donor shown. P values determined by two-way ANOVA with Dunnett's multiple comparisons test. *, P<0.05; **, P<0.01; ***, P<0.001; ****, P<0.0001. 9N: Co-cultures of CD19, or CD19-CAR T cells grown in INO media starting from indicated days post-activation and Nalm6-GD2 (1:10 E: T) starting at day 15 post-activation. Tumor GFP fluorescence intensity was normalized to the first time point (duplicate or triplicate wells). Representative donor of n=2 donor shown. P values determined by two-way ANOVA with Dunnett's multiple comparisons test. *, P<0.05; **, P<0.01; ***, P<0.001; ****, P<0.0001. […] Data are mean±s.e.m. of n=3-5 donors. P values determined by paired two-tailed t-tests. *, P<0.05; **, P<0.01; ***, P<0.001; ****, P<0.0001.

O=c1[nH]cnc2c1ncn2[C@@H]1O[C@H](CO)[C@@H](O)[C@H]1O [inosine, Inosine]
ATP5 (Complex V) protein expression (CAR T cells; CD8+ CAR T cells, day 17, flow): increased level | bioenergetic profile (CAR T cells; Seahorse, day 11): shifting it towards oxidative phosphorylation | extracellular acidification rate (ECAR) (CAR T cells; Seahorse, day 11 post-activation): significantly decreased | total amount of ATP generated (CAR T cells; day 14): increased | expression of ornithine decarboxylase (ODC), spermidine synthase and elF5A (HA-CAR T cells; HA vs HA-INO): increased expression | genes associated with TCR signaling (HA-CAR T cells; HA vs HA-INO): diminished expression | genes associated with glutaminolysis and polyamine synthesis (HA-CAR T cells; HA vs HA-INO, day 14): increased expression | genes associated with glycolysis and glucose driven metabolism (PFKP, ALDOA, GAPDH, PGK, ENO1) (HA-CAR T cells; HA vs HA-INO, day 14): downregulation | variance in principal component analysis attributed to INO exposure (HA-CAR T cells; bulk RNA-seq PCA): 41.3%
